Experimental data reported in paper PMC5896380, “Selective imaging of cathepsin L in breast cancer by fluorescent activity-based probes” (Chemical Science, 2018).
Non-standard residues stand in square brackets, D forms with d. *: point of attachment. Phe(3,4-Cl2) = N[C@@H](Cc1ccc(Cl)c(Cl)c1)C(=O)O; Phe(F5) = N[C@@H](Cc1c(F)c(F)c(F)c(F)c1F)C(=O)O; Phe(3,4-F2) = N[C@@H](Cc1ccc(F)c(F)c1)C(=O)O; Phe(2-Cl) = N[C@@H](Cc1ccccc1Cl)C(=O)O; Phe(4-F) = N[C@@H](Cc1ccc(F)cc1)C(=O)O; Phe(2-F) = N[C@@H](Cc1ccccc1F)C(=O)O; ACC = NC(=O)Cc1cc(=O)oc2cc(N*)ccc12; Met(O) = CS(=O)CC[C@H](N)C(=O)O; Tic = O=C(O)[C@@H]1Cc2ccccc2CN1; dOrn = NCCC[C@@H](N)C(=O)O; Orn = NCCC[C@H](N)C(=O)O; Dab = NCC[C@H](N)C(=O)O

Legend:
Type in all cases: biochemical
cathepsin K [1] = molecular target: T1, cathepsin K (Homo sapiens, UniProt P43235); assay: Substrate selectivity screening, rate of hydrolysis, cathepsin K; settings: Table S4; substrate 100µM, cathepsin 5nM; pH 5.5, 37 °C; average of at least three screenings
T1 construct: made in house
T1 sequence (P43235 115-329): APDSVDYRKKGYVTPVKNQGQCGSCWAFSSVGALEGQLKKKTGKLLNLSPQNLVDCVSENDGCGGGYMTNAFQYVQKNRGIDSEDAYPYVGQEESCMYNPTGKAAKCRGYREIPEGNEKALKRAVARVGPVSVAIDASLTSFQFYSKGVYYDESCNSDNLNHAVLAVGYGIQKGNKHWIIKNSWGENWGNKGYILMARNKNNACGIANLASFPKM
Experimental: (§1) All kinetic experiments were performed using fMax (Molecular Devices) and CLARIOStar (BMG LABTECH) spectrofluorimeters operating in kinetic mode using 96-well plates. ACC-labeled substrates were screened using 355 nm and 460 nm wavelengths (excitation and emission, respectively). […] The buffer was prepared at room temperature and the enzyme kinetic studies were performed at 37 °C.
(§2) All potentially selective cathepsin L substrates were tested for their selectivity against a panel of five different cathepsins, containing cathepsins L, V, S, K and […], at concentrations of 2 μM and 100 μM. To obtain reliable results the concentration of each cathepsin was 5 nM. Substrate hydrolysis was carried out for 10 min (for cathepsin L) and for up to 60 min (for other cathepsins). Hydrolysis rates (RFU s^–1) are presented as average values from at least three screenings.

cathepsin L [2] = molecular target: T2, cathepsin L (Homo sapiens, UniProt P07711); assay: Substrate selectivity screening, rate of hydrolysis, cathepsin L; settings: Table S4; substrate 100µM, cathepsin 5nM; pH 5.5, 37 °C; average of at least three screenings
T2 construct: made in house
T2 sequence (P07711 114-333): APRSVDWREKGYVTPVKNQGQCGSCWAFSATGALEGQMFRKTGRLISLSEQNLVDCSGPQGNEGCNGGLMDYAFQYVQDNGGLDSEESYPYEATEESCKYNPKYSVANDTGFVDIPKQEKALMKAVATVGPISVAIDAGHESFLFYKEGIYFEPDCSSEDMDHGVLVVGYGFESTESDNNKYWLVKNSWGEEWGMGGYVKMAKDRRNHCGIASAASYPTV
Experimental: as §1, §2

cathepsin B [3] = molecular target: T3, cathepsin B (Homo sapiens, UniProt P07858); assay: Substrate selectivity screening, rate of hydrolysis, cathepsin B; settings: Table S4; substrate 100µM, cathepsin 5nM; pH 5.5, 37 °C; average of at least three screenings
T3 construct: made in house
Experimental: as §1, §2

cathepsin S [4] = molecular target: T4, cathepsin S (Homo sapiens, UniProt P25774); assay: Substrate selectivity screening, rate of hydrolysis, cathepsin S; settings: Table S4; substrate 100µM, cathepsin 5nM; pH 5.5, 37 °C; average of at least three screenings
T4 construct: made in house
T4 sequence (P25774 115-331): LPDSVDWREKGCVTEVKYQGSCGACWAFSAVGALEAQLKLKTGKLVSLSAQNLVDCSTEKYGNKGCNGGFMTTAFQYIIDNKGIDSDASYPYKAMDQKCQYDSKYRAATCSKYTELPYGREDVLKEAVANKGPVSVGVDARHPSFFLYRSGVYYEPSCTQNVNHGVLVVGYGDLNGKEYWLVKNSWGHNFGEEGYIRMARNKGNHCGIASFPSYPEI
Experimental: as §1, §2

cathepsin V [5] = molecular target: T5, cathepsin V (Homo sapiens, UniProt O60911); assay: Substrate selectivity screening, rate of hydrolysis, cathepsin V; settings: Table S4; substrate 100µM, cathepsin 5nM; pH 5.5, 37 °C; average of at least three screenings
T5 construct: made in house
T5 sequence (O60911 114-334): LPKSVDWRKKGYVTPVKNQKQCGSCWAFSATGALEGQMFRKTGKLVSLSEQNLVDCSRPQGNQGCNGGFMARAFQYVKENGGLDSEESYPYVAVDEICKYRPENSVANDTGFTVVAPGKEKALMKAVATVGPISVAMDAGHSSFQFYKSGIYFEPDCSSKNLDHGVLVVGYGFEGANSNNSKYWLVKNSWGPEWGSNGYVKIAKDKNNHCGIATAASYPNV
Experimental: as §1, §2

cathepsin L [6] = molecular target: T2, cathepsin L; assay: Kinetic parameters of ACC substrates with cathepsin L; settings: pH 5.5, 37 °C, cathepsin L 0.1–0.5 nM, SD below 15%
Experimental: as §1
(§3) Classic substrate velocity plots were analyzed according to Michaelis–Menten kinetics and a detailed protocol for the determination of kinetic parameters for ACC-tagged substrates is found elsewhere.[56] […] Experiments were repeated at least three times and results are presented as an average. The SDs were below 15%.

cathepsin S [7] = molecular target: T4, cathepsin S; assay: Kinetic parameters of ACC substrates with cathepsin S; settings: Fig. 5B; pH 5.5, 37 °C; cathepsin S 5–20 nM; triplicate, SD below 15%
Experimental: as §1, §3

cathepsin K [8] = molecular target: T1, cathepsin K; assay: Kinetic parameters of ACC substrates with cathepsin K; settings: Fig. 5B; pH 5.5, 37 °C; cathepsin K 5–20 nM; triplicate, SD below 15%
Experimental: as §1, §3

cathepsin V [9] = molecular target: T5, cathepsin V; assay: Kinetic parameters of ACC substrates with cathepsin V; settings: Fig. 5B; pH 5.5, 37 °C; cathepsin V 10–20 nM; triplicate, SD below 15%
Experimental: as §1, §3

cathepsin B [10] = molecular target: T3, cathepsin B; assay: Kinetic parameters of ACC substrates with cathepsin B; settings: Fig. 5B; pH 5.5, 37 °C; cathepsin B 4–15 nM; triplicate, SD below 15%
Experimental: as §1, §3

Substance	Relative substrate activity (rate of hydrolysis), cathepsin K (cathepsin K [1]) [RFU/s]	Relative substrate activity (rate of hydrolysis), cathepsin L (cathepsin L [2]) [RFU/s]	Relative substrate activity (rate of hydrolysis), cathepsin B (cathepsin B [3]) [RFU/s]	Relative substrate activity (rate of hydrolysis), cathepsin S (cathepsin S [4]) [RFU/s]	Relative substrate activity (rate of hydrolysis), cathepsin V (cathepsin V [5]) [RFU/s]	kcat/KM (cathepsin L [6]; Fig. 4B, ACC substrates, 100 mM sodium acetate, 100 mM NaCl, 10 mM DTT, 1 mM EDTA, average of at least three)	kcat/KM Cath-S (cathepsin S [7]) [M⁻¹ s⁻¹]	kcat/KM Cath-K (cathepsin K [8]) [M⁻¹ s⁻¹]	kcat/KM Cath-V (cathepsin V [9]) [M⁻¹ s⁻¹]	kcat/KM Cath-L (cathepsin L [6]; Fig. 5B, triplicate)	kcat/KM Cath-B (cathepsin B [10]) [M⁻¹ s⁻¹]
Ac-A[Orn][Phe(3,4-Cl2)]R-{ACC} (SMILES CC(=O)N[C@@H](C)C(=O)N[C@@H](CCCN)C(=O)N[C@@H](Cc1ccc(Cl)c(Cl)c1)C(=O)N[C@@H](CCCNC(=N)N)C(=O)Nc1ccc2c(CC(N)=O)cc(=O)oc2c1)	4.6	844	189	3.4	346	–	–	–	–	–	–
Ac-A[dK]K(Ac)R-{ACC} (SMILES CC(=O)NCCCC[C@H](NC(=O)[C@@H](CCCCN)NC(=O)[C@H](C)NC(C)=O)C(=O)N[C@@H](CCCNC(=N)N)C(=O)Nc1ccc2c(CC(N)=O)cc(=O)oc2c1)	1.2	25.3	16.9	0.0	0.0	–	–	–	–	–	–
Ac-HRFR-{ACC} (SMILES CC(=O)N[C@@H](Cc1c[nH]cn1)C(=O)N[C@@H](CCCNC(=N)N)C(=O)N[C@@H](Cc1ccccc1)C(=O)N[C@@H](CCCNC(=N)N)C(=O)Nc1ccc2c(CC(N)=O)cc(=O)oc2c1) [reference compound]	24.5	875	272	40.3	224	13,050,000 M^-1s^-1	–	–	–	–	–
Ac-H[dL][Phe(3,4-Cl2)]R-{ACC} (SMILES CC(=O)N[C@@H](Cc1c[nH]cn1)C(=O)N[C@H](CC(C)C)C(=O)N[C@@H](Cc1ccc(Cl)c(Cl)c1)C(=O)N[C@@H](CCCNC(=N)N)C(=O)Nc1ccc2c(CC(N)=O)cc(=O)oc2c1)	1.5	901	65.1	4.4	306	–	–	–	–	–	–
Ac-H[dL][Phe(F5)][Orn]-{ACC} (SMILES CC(=O)N[C@@H](Cc1c[nH]cn1)C(=O)N[C@H](CC(C)C)C(=O)N[C@@H](Cc1c(F)c(F)c(F)c(F)c1F)C(=O)N[C@@H](CCCN)C(=O)Nc1ccc2c(CC(N)=O)cc(=O)oc2c1)	0.3	153	0.0	0.0	0.0	–	–	–	–	–	–
Ac-H[dR][Phe(3,4-F2)]L-{ACC} (SMILES CC(=O)N[C@@H](Cc1c[nH]cn1)C(=O)N[C@H](CCCNC(=N)N)C(=O)N[C@@H](Cc1ccc(F)c(F)c1)C(=O)N[C@@H](CC(C)C)C(=O)Nc1ccc2c(CC(N)=O)cc(=O)oc2c1)	0.0	474	22.3	12.7	30.5	–	–	–	–	–	–
Ac-H[dV][Phe(F5)]R-{ACC} (SMILES CC(=O)N[C@@H](Cc1c[nH]cn1)C(=O)N[C@@H](C(=O)N[C@@H](Cc1c(F)c(F)c(F)c(F)c1F)C(=O)N[C@@H](CCCNC(=N)N)C(=O)Nc1ccc2c(CC(N)=O)cc(=O)oc2c1)C(C)C)	1.1	706	0.7	0.0	4.4	–	< 10	< 10	539	747,400 M^-1s^-1	252
Ac-Pip-DLeu-Phe(3,4-F2)-Arg-ACC	1.2	699	9.4	7.8	103	–	–	–	–	–	–
Ac-[Met(O)][dR][Phe(2-F)]R-{ACC} (SMILES CC(=O)N[C@@H](CCS(C)=O)C(=O)N[C@H](CCCNC(=N)N)C(=O)N[C@@H](Cc1ccccc1F)C(=O)N[C@@H](CCCNC(=N)N)C(=O)Nc1ccc2c(CC(N)=O)cc(=O)oc2c1)	0.2	658	76.2	21.1	129	–	–	–	–	–	–
Ac-[Tic][Dab][Phe(3,4-F2)]R-{ACC} (SMILES CC(=O)N1Cc2ccccc2C[C@H]1C(=O)N[C@@H](CCN)C(=O)N[C@@H](Cc1ccc(F)c(F)c1)C(=O)N[C@@H](CCCNC(=N)N)C(=O)Nc1ccc2c(CC(N)=O)cc(=O)oc2c1)	0.2	825	41.2	2.8	28.4	–	–	–	–	–	–
Ac-[Tic][Orn][Phe(4-F)]L-{ACC} (SMILES CC(=O)N1Cc2ccccc2C[C@H]1C(=O)N[C@@H](CCCN)C(=O)N[C@@H](Cc1ccc(F)cc1)C(=O)N[C@@H](CC(C)C)C(=O)Nc1ccc2c(CC(N)=O)cc(=O)oc2c1)	0.0	684	15.0	4.7	31.7	–	–	–	–	–	–
Ac-[Tic][dOrn][Phe(2-Cl)]K-{ACC} (SMILES CC(=O)N1Cc2ccccc2C[C@H]1C(=O)N[C@H](CCCN)C(=O)N[C@@H](Cc1ccccc1Cl)C(=O)N[C@@H](CCCCN)C(=O)Nc1ccc2c(CC(N)=O)cc(=O)oc2c1) [Tic-DArg-Phe(2-Cl)-Lys]	0.0	134	3.1	10.3	36.1	–	–	–	–	–	–
